Assays:
S. aureus DSM 20231 [1] = test: Bliss interaction score (quartile over a dose matrix) (fitness difference); higher = more antagonism (negative = synergy)
Method in brief: (§1)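 Fitness here means normalised growth, inferred for single drugs from the combination data. Growth was OD595 at entry into stationary phase, divided by the plate's robust no-drug mean and capped at 1. The Bliss score is observed minus expected fitness, with the expectation being the product, and its quartiles span technical, biological and donor/recipient replicates.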

B. subtilis 168 [2] = test: as above
Method in brief: as §1

S. pneumoniae D39V [3] = test: as above
Method in brief: as §1

S. aureus Newman [4] = test: as above
Method in brief: as §1

S. aureus DSM 20231 [5] = test: fitness (endpoint OD595 vs no drug) (fraction); higher = more growth
Method in brief: (§2)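 Fitness was measured as bacterial growth in 384-well plates inoculated at OD595 0.01 (30 µl, or 55 µl for S. pneumoniae). Media were TSB, LB Lennox or CY, at 37 °C. OD595 was read every 30 min for 14 h and background-subtracted against the first reading. Fitness is OD595 at the transition into stationary phase divided by the robust mean of no-drug control wells, capped at 1.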

B. subtilis 168 [6] = test: as above
Method in brief: as §2

S. pneumoniae D39V [7] = test: as above
Method in brief: as §2

S. aureus Newman [8] = test: as above
Method in brief: as §2
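Wherever Bliss interaction score (quartile over a dose matrix) is given: first quartile when negative (synergy) and third quartile when positive (antagonism).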
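Wherever fitness (endpoint OD595 vs no drug) is given: OD595 on entry to stationary phase over no-drug wells; at most 1.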

Cc1ncc([N+](=O)[O-])n1CCO [Metronidazole] + Cc1cc(NS(=O)(=O)c2ccc(N)cc2)no1 [Sulfamethoxazol]
Settings	Bliss interaction score
B. subtilis 168 [2]	0.0475
S. aureus DSM 20231 [1]	0.0776
S. aureus Newman [4]	0.0439
S. pneumoniae D39V [3]	-0.0219

fitness
Settings	first compound 0.625 µg/mL	first compound 1.073 µg/mL	first compound 1.25 µg/mL	first compound 2.145 µg/mL	first compound 2.5 µg/mL	first compound 4.29 µg/mL
B. subtilis 168 [6], partner 1 µg/mL	0.876	–	0.951	–	0.948	–
B. subtilis 168 [6], partner 2 µg/mL	0.91	–	0.903	–	0.896	–
B. subtilis 168 [6], partner 4 µg/mL	0.962	–	0.992	–	0.96	–
S. aureus DSM 20231 [5], partner 1 µg/mL	0.982	–	≥ 1	–	≥ 1	–
S. aureus DSM 20231 [5], partner 2 µg/mL	0.983	–	0.986	–	0.988	–
S. aureus DSM 20231 [5], partner 4 µg/mL	0.963	–	0.969	–	0.992	–
S. aureus Newman [8], partner 1 µg/mL	≥ 1	–	0.977	–	0.97	–
S. aureus Newman [8], partner 2 µg/mL	0.94	–	0.978	–	0.95	–
S. aureus Newman [8], partner 4 µg/mL	0.979	–	0.997	–	≥ 1	–
S. pneumoniae D39V [7], partner 1 µg/mL	–	0.935	–	0.792	–	0.912
S. pneumoniae D39V [7], partner 2 µg/mL	–	0.952	–	0.93	–	0.95
S. pneumoniae D39V [7], partner 4 µg/mL	–	0.984	–	0.952	–	0.944

one replicate
Settings	fitness
B. subtilis 168 [6], first compound 0.625 µg/mL, partner 0.5 µg/mL	≥ 1
B. subtilis 168 [6], first compound 1.25 µg/mL, partner 0.5 µg/mL	≥ 1
B. subtilis 168 [6], first compound 2.5 µg/mL, partner 0.5 µg/mL	≥ 1
S. aureus Newman [8], first compound 0.625 µg/mL, partner 8 µg/mL	0.864
S. aureus Newman [8], first compound 0.781 µg/mL, partner 1 µg/mL	≥ 1
S. aureus Newman [8], first compound 0.781 µg/mL, partner 2 µg/mL	≥ 1
S. aureus Newman [8], first compound 0.781 µg/mL, partner 4 µg/mL	≥ 1
S. aureus Newman [8], first compound 1.25 µg/mL, partner 8 µg/mL	0.911
S. aureus Newman [8], first compound 1.562 µg/mL, partner 1 µg/mL	≥ 1
S. aureus Newman [8], first compound 1.562 µg/mL, partner 2 µg/mL	≥ 1
S. aureus Newman [8], first compound 1.562 µg/mL, partner 4 µg/mL	≥ 1
S. aureus Newman [8], first compound 2.5 µg/mL, partner 8 µg/mL	0.898
S. aureus Newman [8], first compound 3.124 µg/mL, partner 1 µg/mL	0.992
S. aureus Newman [8], first compound 3.124 µg/mL, partner 2 µg/mL	0.982
S. aureus Newman [8], first compound 3.124 µg/mL, partner 4 µg/mL	≥ 1
S. pneumoniae D39V [7], first compound 1.25 µg/mL, partner 1 µg/mL	0.979
S. pneumoniae D39V [7], first compound 1.25 µg/mL, partner 2 µg/mL	≥ 1
S. pneumoniae D39V [7], first compound 1.25 µg/mL, partner 4 µg/mL	0.916
S. pneumoniae D39V [7], first compound 2.5 µg/mL, partner 1 µg/mL	≥ 1
S. pneumoniae D39V [7], first compound 2.5 µg/mL, partner 2 µg/mL	≥ 1
S. pneumoniae D39V [7], first compound 2.5 µg/mL, partner 4 µg/mL	0.917
S. pneumoniae D39V [7], first compound 5 µg/mL, partner 1 µg/mL	≥ 1
S. pneumoniae D39V [7], first compound 5 µg/mL, partner 2 µg/mL	≥ 1
S. pneumoniae D39V [7], first compound 5 µg/mL, partner 4 µg/mL	0.9

Cc1ncc([N+](=O)[O-])n1CCO [Metronidazole] + CN1C2=CC=CC=C2N=C3C1=CC=CC3=O [Pyocyanin]
Settings	Bliss interaction score
B. subtilis 168 [2]	-0.0539
S. aureus DSM 20231 [1]	0.0663
S. aureus Newman [4]	0.0796
S. pneumoniae D39V [3]	0.0391

Settings	fitness
B. subtilis 168 [6], first compound 0.625 µg/mL, partner 1.25 µg/mL	0.886
B. subtilis 168 [6], first compound 0.625 µg/mL, partner 2.5 µg/mL	0.867
B. subtilis 168 [6], first compound 0.625 µg/mL, partner 5 µg/mL	0.75
B. subtilis 168 [6], first compound 1.25 µg/mL, partner 1.25 µg/mL	0.884
B. subtilis 168 [6], first compound 1.25 µg/mL, partner 2.5 µg/mL	0.899
B. subtilis 168 [6], first compound 1.25 µg/mL, partner 5 µg/mL	0.743
B. subtilis 168 [6], first compound 2.5 µg/mL, partner 1.25 µg/mL	0.884
B. subtilis 168 [6], first compound 2.5 µg/mL, partner 2.5 µg/mL	0.896
B. subtilis 168 [6], first compound 2.5 µg/mL, partner 5 µg/mL	0.719
S. aureus DSM 20231 [5], first compound 0.625 µg/mL, partner 1.25 µg/mL	0.948
S. aureus DSM 20231 [5], first compound 0.625 µg/mL, partner 2.5 µg/mL	0.916
S. aureus DSM 20231 [5], first compound 0.625 µg/mL, partner 5 µg/mL	0.621
S. aureus DSM 20231 [5], first compound 1.25 µg/mL, partner 1.25 µg/mL	0.996
S. aureus DSM 20231 [5], first compound 1.25 µg/mL, partner 2.5 µg/mL	0.97
S. aureus DSM 20231 [5], first compound 1.25 µg/mL, partner 5 µg/mL	0.645
S. aureus DSM 20231 [5], first compound 2.5 µg/mL, partner 1.25 µg/mL	≥ 1
S. aureus DSM 20231 [5], first compound 2.5 µg/mL, partner 2.5 µg/mL	0.961
S. aureus DSM 20231 [5], first compound 2.5 µg/mL, partner 5 µg/mL	0.686
S. aureus Newman [8], first compound 0.625 µg/mL, partner 1.25 µg/mL	0.881
S. aureus Newman [8], first compound 0.625 µg/mL, partner 2.5 µg/mL	0.831
S. aureus Newman [8], first compound 1.25 µg/mL, partner 1.25 µg/mL	0.905
S. aureus Newman [8], first compound 1.25 µg/mL, partner 2.5 µg/mL	0.834
S. aureus Newman [8], first compound 2.5 µg/mL, partner 2.5 µg/mL	0.802
S. aureus Newman [8], first compound 2.5 µg/mL, partner 5 µg/mL	0.258
S. pneumoniae D39V [7], first compound 1.073 µg/mL, partner 0.325 µg/mL	≥ 1
S. pneumoniae D39V [7], first compound 1.073 µg/mL, partner 0.65 µg/mL	≥ 1
S. pneumoniae D39V [7], first compound 1.073 µg/mL, partner 1.3 µg/mL	0.795
S. pneumoniae D39V [7], first compound 2.145 µg/mL, partner 0.325 µg/mL	0.958
S. pneumoniae D39V [7], first compound 2.145 µg/mL, partner 0.65 µg/mL	0.98
S. pneumoniae D39V [7], first compound 2.145 µg/mL, partner 1.3 µg/mL	0.731
S. pneumoniae D39V [7], first compound 4.29 µg/mL, partner 0.325 µg/mL	0.98
S. pneumoniae D39V [7], first compound 4.29 µg/mL, partner 0.65 µg/mL	0.95
S. pneumoniae D39V [7], first compound 4.29 µg/mL, partner 1.3 µg/mL	0.815

fitness, one replicate
Settings	first compound 0.781 µg/mL	first compound 1.25 µg/mL	first compound 1.562 µg/mL	first compound 2.5 µg/mL	first compound 3.124 µg/mL	first compound 5 µg/mL
S. aureus Newman [8], partner 1.25 µg/mL	0.808	–	0.785	–	0.771	–
S. aureus Newman [8], partner 2.5 µg/mL	0.795	–	0.768	–	0.78	–
S. aureus Newman [8], partner 5 µg/mL	0.376	–	0.425	–	0.418	–
S. pneumoniae D39V [7], partner 0.325 µg/mL	–	≥ 1	–	≥ 1	–	≥ 1
S. pneumoniae D39V [7], partner 0.65 µg/mL	–	≥ 1	–	≥ 1	–	≥ 1

C[C@@H]1O[C@@H]1P(=O)(O)O [Fosfomycin] + CCN(CC)CCOC(=O)c1ccc(N)cc1 [Procaine]
Settings	Bliss interaction score
B. subtilis 168 [2]	-0.0557
S. aureus DSM 20231 [1]	-0.0626
S. aureus Newman [4]	0.0813
S. pneumoniae D39V [3]	-0.029

fitness
Settings	partner 85.5 µg/mL	partner 171 µg/mL	partner 342 µg/mL
B. subtilis 168 [6], first compound 1.562 µg/mL	0.711	0.704	0.646
B. subtilis 168 [6], first compound 3.124 µg/mL	0.592	0.554	0.576
B. subtilis 168 [6], first compound 6.248 µg/mL	0.377	0.372	0.322
S. aureus DSM 20231 [5], first compound 0.781 µg/mL	0.736	0.812	0.833
S. aureus DSM 20231 [5], first compound 1.562 µg/mL	0.603	0.64	0.634
S. aureus DSM 20231 [5], first compound 3.124 µg/mL	0.427	0.513	0.489
S. aureus Newman [8], first compound 0.781 µg/mL	0.576	0.54	0.562
S. aureus Newman [8], first compound 1.562 µg/mL	0.535	0.553	0.516
S. aureus Newman [8], first compound 3.124 µg/mL	0.198	0.197	0.162
S. pneumoniae D39V [7], first compound 1.25 µg/mL	0.979	0.97	0.924
S. pneumoniae D39V [7], first compound 2.5 µg/mL	0.951	0.921	0.905
S. pneumoniae D39V [7], first compound 5 µg/mL	0.81	0.827	0.813

C[C@@H]1O[C@@H]1P(=O)(O)O [Fosfomycin] + Cc1cc(NS(=O)(=O)c2ccc(N)cc2)no1 [Sulfamethoxazol]
Settings	Bliss interaction score
B. subtilis 168 [2]	-0.0756
S. aureus DSM 20231 [1]	-0.0688
S. aureus Newman [4]	0.0933
S. pneumoniae D39V [3]	-0.0416

fitness
Settings	partner 1 µg/mL	partner 2 µg/mL	partner 4 µg/mL
B. subtilis 168 [6], first compound 1.562 µg/mL	0.652	0.673	0.679
B. subtilis 168 [6], first compound 3.124 µg/mL	0.548	0.557	0.516
B. subtilis 168 [6], first compound 6.248 µg/mL	0.489	0.378	0.379
S. aureus DSM 20231 [5], first compound 0.781 µg/mL	0.709	0.696	0.678
S. aureus DSM 20231 [5], first compound 1.562 µg/mL	0.547	0.581	0.581
S. aureus DSM 20231 [5], first compound 3.124 µg/mL	0.49	0.503	0.509
S. aureus Newman [8], first compound 0.781 µg/mL	0.627	0.705	0.71
S. aureus Newman [8], first compound 1.562 µg/mL	0.513	0.572	0.496
S. aureus Newman [8], first compound 3.124 µg/mL	0.211	–	0.141
S. pneumoniae D39V [7], first compound 1.25 µg/mL	0.957	0.935	0.955
S. pneumoniae D39V [7], first compound 2.5 µg/mL	0.918	0.925	0.943
S. pneumoniae D39V [7], first compound 5 µg/mL	0.757	0.756	0.78

fitness, one replicate
Settings	first compound 0.781 µg/mL	first compound 1.562 µg/mL	first compound 3.124 µg/mL	first compound 6.248 µg/mL
B. subtilis 168 [6], partner 0.5 µg/mL	–	0.794	0.686	0.592
S. aureus Newman [8], partner 8 µg/mL	0.782	0.733	0.519	–

— the supplement of paper PMC10627819
